# Measured values reported in patent publication US20250171437A1 (Agios Pharmaceuticals,Inc., priority 2022, published 2025).
# Molecular target: T1, human PAH with the R408W mutation (A375 R408W cells) (Homo sapiens, UniProt P00439, R408W)
# T1 construct: expressed in transfected cells
# T1 sequence (P00439 1-452 R408W): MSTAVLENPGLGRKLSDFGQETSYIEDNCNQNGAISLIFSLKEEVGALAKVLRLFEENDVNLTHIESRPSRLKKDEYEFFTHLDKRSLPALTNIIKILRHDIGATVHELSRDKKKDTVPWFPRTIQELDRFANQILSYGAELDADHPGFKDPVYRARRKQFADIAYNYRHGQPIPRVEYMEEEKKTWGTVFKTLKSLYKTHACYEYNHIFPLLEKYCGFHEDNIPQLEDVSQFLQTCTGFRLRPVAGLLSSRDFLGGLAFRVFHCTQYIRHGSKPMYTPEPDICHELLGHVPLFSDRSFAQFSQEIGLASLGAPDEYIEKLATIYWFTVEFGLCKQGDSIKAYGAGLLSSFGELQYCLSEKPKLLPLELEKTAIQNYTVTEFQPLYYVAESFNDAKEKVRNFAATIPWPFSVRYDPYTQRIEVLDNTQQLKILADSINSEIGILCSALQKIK
# Assay: Cell Based Phenylalanine Flux Assay
# Settings: A375 R408W cells; 24 hrs with compound, then 20 μM sepiapterin and 800 μM 13C9,15N-Phenylalanine for 4 hours; 13C-Tyrosine by LC-MS; average where tested multiple times
# How it was run: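 A375 cells stably expressing lentiviral human PAH R408W were treated with compounds (10-point 2-fold dilutions, 0.5% DMSO, duplicate) for 24 h at 37 °C. Then 20 μM sepiapterin and 800 μM 13C9,15N-Phe were added for 4 h; media 13C-Tyr was measured by LC-MS to give AC50.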
row,AC50 [nM],SMILES
1,≤ 500,"O=C(c1ocnc1C(F)F)N1CCc2[nH]cnc2[C@H]1c1nc2cc(F)cc(F)c2o1 [Example 309, (S)-(4-(5,7-difluorobenzo[d]oxazol-2-yl)-6,7-dihydro-1H-imidazo[4,5-c]pyridin-5(4H)-yl)(4-(difluoromethyl)oxazol-5-yl)methanone]"
2,≤ 500,"COc1cccc2nc([C@@H]3c4nc[nH]c4CCN3C(=O)c3ccnn3C3CC3)oc12 [Example 767, (S)-(1-cyclopropyl-1H-pyrazol-5-yl)(4-(7-methoxybenzo[d]oxazol-2-yl)-6,7-dihydro-1H-imidazo[4,5-c]pyridin-5(4H)-yl)methanone]"
3,≤ 500,"CC(C)n1nccc1C(=O)N1CCc2[nH]cnc2[C@H]1c1nc2ccccc2o1 [Example 752, (S)-(4-(benzo[d]oxazol-2-yl)-6,7-dihydro-1H-imidazo[4,5-c]pyridin-5(4H)-yl)(1-isopropyl-1H-pyrazol-5-yl)methanone]"
4,1000 to 5000,"C[C@@H](O)c1nc(C(F)F)c(C(=O)N2CCc3[nH]cnc3[C@@H]2c2nc3cc(F)ccc3o2)o1 [Example 152, (4-(difluoromethyl)-2-((R)-1-hydroxyethyl)oxazol-5-yl)((R)-4-(5-fluorobenzo[d]oxazol-2-yl)-6,7-dihydro-1H-imidazo[4,5-c]pyridin-5(4H)-yl)methanone]"
5,500 to 1000,"CC(O)c1nc(Cl)c(C(=O)N2CCc3[nH]cnc3[C@H]2c2nc3cc(F)ccc3o2)o1 (single isomer, unassigned) [Example 236]"
6,≤ 500,"O=C(c1oc(-c2ccccn2)nc1C1CC1)N1CCc2[nH]cnc2[C@H]1c1nc2cc(F)ccc2o1 [Example 43, (S)-(4-cyclopropyl-2-(pyridin-2-yl)oxazol-5-yl)(4-(5-fluorobenzo[d]oxazol-2-yl)-6,7-dihydro-1H-imidazo[4,5-c]pyridin-5(4H)-yl)methanone]"
7,≤ 500,"Cc1ccc(F)c2nc([C@@H]3c4nc[nH]c4CCN3C(=O)c3oc(C(C)(C)O)nc3C(F)F)oc12 [Example 723, (S)-(4-(difluoromethyl)-2-(2-hydroxypropan-2-yl)oxazol-5-yl)(4-(4-fluoro-7-methylbenzo[d]oxazol-2-yl)-6,7-dihydro-1H-imidazo[4,5-c]pyridin-5(4H)-yl)methanone]"
8,1000 to 5000,"CC(F)(F)c1ncoc1C(=O)N1CCc2[nH]cnc2[C@@H]1c1nc2c(F)cccc2o1 [Example 652, (R)-(4-(1,1-difluoroethyl)oxazol-5-yl)(4-(4-fluorobenzo[d]oxazol-2-yl)-6,7-dihydro-1H-imidazo[4,5-c]pyridin-5(4H)-yl)methanone]"
9,1000 to 5000,"Cn1ccc(-c2nc(C(F)(F)F)c(C(=O)N3CCc4[nH]cnc4[C@@H]3c3nc4cc(F)ccc4o3)o2)n1 [Example 788, (R)-(4-(5-fluorobenzo[d]oxazol-2-yl)-6,7-dihydro-1H-imidazo[4,5-c]pyridin-5(4H)-yl)(2-(1-methyl-1H-pyrazol-3-yl)-4-(trifluoromethyl)oxazol-5-yl)methanone]"
10,≤ 500,"O=C(c1nnc(-c2ncccc2F)o1)N1CCc2[nH]cnc2[C@H]1c1nc2c(F)ccc(F)c2o1 [Example 800, (S)-(4-(4,7-difluorobenzo[d]oxazol-2-yl)-6,7-dihydro-1H-imidazo[4,5-c]pyridin-5(4H)-yl)(5-(3-fluoropyridin-2-yl)-1,3,4-oxadiazol-2-yl)methanone]"
11,≥ 5000,"CC(C)(O)C1CCN(c2ccc3c(C(=O)N4CCc5[nH]cnc5[C@@H]4c4nc5c(F)cccc5o4)cnn3c2)CC1 [Example 508, (R)-(4-(4-fluorobenzo[d]oxazol-2-yl)-6,7-dihydro-1H-imidazo[4,5-c]pyridin-5(4H)-yl)(6-(4-(2-hydroxypropan-2-yl)piperidin-1-yl)pyrazolo[1,5-a]pyridin-3-yl)methanone]"
12,≤ 500,"Cc1cccc2nc([C@@H]3c4nc[nH]c4CCN3C(=O)c3nc(C(F)F)nn3C)oc12 [Example 613, (S)-(3-(difluoromethyl)-1-methyl-1H-1,2,4-triazol-5-yl)(4-(7-methylbenzo[d]oxazol-2-yl)-6,7-dihydro-1H-imidazo[4,5-c]pyridin-5(4H)-yl)methanone]"
13,≤ 500,"Cc1cccc2oc([C@@H]3c4nc[nH]c4CCN3C(=O)c3nnc(-c4ccccn4)o3)nc12 [Example 482, (S)-(4-(4-methylbenzo[d]oxazol-2-yl)-6,7-dihydro-1H-imidazo[4,5-c]pyridin-5(4H)-yl)(5-(pyridin-2-yl)-1,3,4-oxadiazol-2-yl)methanone]"
14,500 to 1000,"Cc1ccc2nc([C@@H]3c4nc[nH]c4CCN3C(=O)c3nnc(-c4ccn(C)n4)o3)oc2c1 [Example 357, (S)-(5-(1-methyl-1H-pyrazol-3-yl)-1,3,4-oxadiazol-2-yl)(4-(6-methylbenzo[d]oxazol-2-yl)-6,7-dihydro-1H-imidazo[4,5-c]pyridin-5(4H)-yl)methanone]"
15,1000 to 5000,"CN1CCN(c2cn3ncc(C(=O)N4CCc5[nH]cnc5[C@@H]4c4nc5cc(F)ccc5o4)c3cc2Cl)CC1 [Example 182, (R)-(5-chloro-6-(4-methylpiperazin-1-yl)pyrazolo[1,5-a]pyridin-3-yl)(4-(5-fluorobenzo[d]oxazol-2-yl)-6,7-dihydro-1H-imidazo[4,5-c]pyridin-5(4H)-yl)methanone]"
16,≤ 500,"O=C(c1nnc(-c2ccccn2)o1)N1CCc2[nH]cnc2[C@H]1c1nc2c(F)ccc(F)c2o1 [Example 520, (S)-(4-(4,7-difluorobenzo[d]oxazol-2-yl)-6,7-dihydro-1H-imidazo[4,5-c]pyridin-5(4H)-yl)(5-(pyridin-2-yl)-1,3,4-oxadiazol-2-yl)methanone]"
17,≤ 500,"COc1cccc2oc([C@@H]3c4nc[nH]c4CCN3C(=O)c3ccnn3C(F)F)nc12 [Example 603, (S)-(1-(difluoromethyl)-1H-pyrazol-5-yl)(4-(4-methoxybenzo[d]oxazol-2-yl)-6,7-dihydro-1H-imidazo[4,5-c]pyridin-5(4H)-yl)methanone]"
18,≤ 500,"COc1cccc2oc([C@@H]3c4nc[nH]c4CCN3C(=O)c3nnc(-c4ccccn4)o3)nc12 [Example 624, (S)-(4-(4-methoxybenzo[d]oxazol-2-yl)-6,7-dihydro-1H-imidazo[4,5-c]pyridin-5(4H)-yl)(5-(pyridin-2-yl)-1,3,4-oxadiazol-2-yl)methanone]"

# Same assay, conditions: A375 cells expressing R408W PAH; 24 hrs with compound, then 20 μM sepiapterin and 800 μM 13C9,15N-Phenylalanine for 4 hours; 13C-Tyrosine by LC-MS; average where tested multiple times
row,AC50 [nM],SMILES
1,≥ 5000,Cc1nc(C(C)(C)O)oc1C(=O)N1CCc2[nH]cnc2C1c1nc2ccc(F)cc2o1 (stereo not drawn)
2,≥ 5000,O=C(CCc1cncs1)N1CCc2[nH]cnc2C1c1nc2c(F)cccc2o1 (stereo not drawn)
3,1000 to 5000,Cn1nc(C(F)F)nc1C(=O)N1CCc2[nH]cnc2C1c1nc2c(F)c(F)ccc2o1 (stereo not drawn)
4,≥ 5000,Cc1nc(C(C)(C)O)oc1C(=O)N1CCc2[nH]cnc2C1c1nc2cc(F)ccc2o1 (stereo not drawn) [listing 1 of 2 here]
5,≥ 5000,Cc1nc(-c2cnn(C)c2)sc1C(=O)N1CCc2[nH]cnc2C1c1nc2cc(F)ccc2o1 (stereo not drawn)
6,1000 to 5000,"O=C(c1cnn2cc(CN3CCC(F)(F)C3)ccc12)N1CCc2[nH]cnc2[C@H]1c1nc2cc(F)ccc2o1 (single isomer, unassigned)"
7,1000 to 5000,Cc1nc(C(C)(C)O)oc1C(=O)N1CCc2[nH]cnc2C1c1nc2cc(F)ccc2o1 (stereo not drawn) [listing 2 of 2 here]
8,1000 to 5000,O=C(c1cnn2cc(N3CCN(CC(F)(F)F)CC3)ccc12)N1CCc2[nH]cnc2C1c1nc2cc(F)ccc2o1 (stereo not drawn)
9,1000 to 5000,CC(C)(O)c1nnc(C(=O)N2CCc3[nH]cnc3C2c2nc3c(F)ccc(F)c3o2)o1 (stereo not drawn)
